Data: US10633388B2, “Pyrazolopyrimidone derivatives and methods of use thereof” (Shanghai Hengrui Pharmaceutical Co., Ltd., priority 2013, dated 2020)

Experiments:
monkey GnRHr = monkey GnRHr (Macaca fascicularis, UniProt A0A2K5WH82); experiment: Monkey GnRHr inhibitory activity assay, Fluo-4 calcium signal in stably transfected CHO cells; format: cell-based; details: GnRH polypeptide stimulation, read-out: IC50, inhibition of the activity of Monkey GnRHr
Description: This assay was used to determine the inhibition effect of the present compounds on the activity of monkey GnRHr protein expressed by monkey GnRHr/CHO stably transfected cell lines.
A mammalian expression vector containing the monkey GnRHr gene was transferred into CHO cells by adding Lipofectamine®LTX reagent containing Plus™. Antibiotics were added the next day for screening to pick out the monoclonal cell lines.
The monkey GnRHr/CHO stably transfected cell lines were inoculated in 96-well plates with an inoculation density of 25,000 cells/well. The culture medium was removed the next day, and loading buffer containing Fluo-4 dye was added to the plate ([…]) and incubated for 30 minutes at 37° C. The plate was moved to room temperature and equilibrated for 10 minutes. Each compound was diluted with DMSO to seven concentration gradients of 100 μM, 10 μM, 1 μM, 0.1 μM, 0.01 μM, 0.001 μM, 0.0001 μM. […] After automated addition of 50 μL of GnRH polypeptide stimulant solution, the value was immediately detected at 494/516 […] by a microplate reader (flexstation 3). IC50 values of the compounds were calculated by software from different fluorescence signals at various corresponding concentrations.
The inhibitory activity of the present compounds on monkey GnRHr was determined by the above assay, and IC50 values are shown in Table 1.

[1] = Rat pharmacokinetics assay; format: in vivo; details: both sexes, Sprague-Dawley, plasma, SD rats, oral 10 mg/kg vs i.v. 5 mg/kg, read-out: Oral Bioavailability F
Description: Sprague-Dawley (SD) rats were used as test animals. The plasma concentrations at various times were determined by LC/MS/MS after intragastric administration of compounds of Example 2, Example 3, Example 5, Example 9, Example 10, Example 11, and Example 13, and intravenous administration of the compound of Example 11 to the rats. The pharmacokinetic behavior of the present compounds in rats was studied, and the pharmacokinetic features were evaluated.
Thirty-two (32) healthy adult SD rats (half female and half male) were evenly designated into 8 groups (4 for each group). The animals were purchased from Shanghai Super B&K Laboratory Animal Corp. Ltd (laboratory animal production Certificate No. SCXK (HU)2008-0016).
An appropriate amount of sample was weighed, and added with 0.5% CMC-Na to form a 1 mg/ml suspension upon ultrasonic treatment.
Appropriate amounts of drugs were weighed, and dissolved with 0.5 ml DMSO and 0.5 ml of Tween 80. Saline solution was added to the final volume. […]
The content of the test compound in the plasma of rats after administration of the compound by oral gavage was determined by LC/MS/MS.

[2] = Seven-day toxicokinetic evaluation in rats; format: in vivo, SD rats
Description: SD rats were used as test animals. The plasma concentration at various times was determined by LC/MS/MS after administration of the compound of Example 11 (SHR147280) by oral gavage for 7 days. The compound toxicity in rodents was preliminarily assessed according to the potential toxicity reaction and severity level of the body.
Twenty-four (24) healthy adult SD rats (half female and half male) were evenly designated into 4 groups (6 for each group). The animals were purchased from Shanghai SLAC Laboratory Animal Corp. Ltd (laboratory animal production Certificate No. SCXK (HU) 2012-0002).
An appropriate amount of sample was accurately weighed, and added with some 0.5% CMC-Na to form an uniform suspension upon ultrasonicator grinding treatment, and then diluted to the final volume. The test sample solutions on day 1 and day 7 were kept for the determination of administration concentration of toxicokinetics.
Repeat oral doses were 80, 240, and 720 mg/kg, and administration concentrations were 8, 24, and 72 mg/ml respectively. The dosing volume was 10 ml/kg once daily for 7 days.
The blood was sampled on day 1 and day 7 after administration with sampling time before, and 1, 2, 4, 8 and 24 hours after oral administration on day 1, as well as before, and 1, 2, 4, 8, 24 and 48 hours after oral administration on day 7. The blood sample was collected in a heparinized test tube, and centrifuged to separate the plasma, which was stored at −20° C. The content of the test compound in the plasma of rats after administration of the compound by oral gavage was determined by LC/MS/MS.

[3] = Rabbit pharmacokinetics assay; format: in vivo, New Zealand rabbits; details: rabbits
Description: (§1) Rabbits were used as test animals. The plasma concentrations at various times were determined by LC/MS/MS after intragastric administration of the compound of Example 11, and intravenous administration of the compound of Example 11 to rabbits. The pharmacokinetic behavior of the present compound in rabbits was studied, and the pharmacokinetic features were evaluated.
Six (6) healthy New Zealand Rabbits (female) were evenly designated into 2 groups. The animals were purchased from Jie Sijie Corp. Ltd.
An appropriate amount of sample was weighed, and added with 0.5% CMC-Na to form […] suspension upon ultrasonic treatment.
Appropriate amounts of drugs were weighed, and dissolved with 1 ml DMSO and 1 ml of Tween 80. Saline solution was added to the final volume. […]
0.2 ml of blood was sampled before and 5 minutes, 0.25, 0.5, 1, 2, 4, 8, 11, 24 hours after intravenous administration, collected in a heparinized test tube, and centrifuged at 3500 rpm for 10 minutes to separate the plasma, which was stored at −20° C. […] The content of the test compound in the plasma of rabbits after administration of the compound by oral gavage and intravenous injection was determined by LC/MS/MS.

[4] = Beagle pharmacokinetics assay; format: in vivo; details: beagles
Description: as §1, with “Beagles” for “Rabbits”, “beagles.” for “rabbits.”, “beagles” for “rabbits”
Eight (8) healthy beagles (half female and half male) were evenly designated into 2 groups. The animals were purchased from SuzhouXishan Zhongke Laboratory Animal Corp. Ltd.
An appropriate amount of sample was weighed, and added with 0.5% CMC-Na to form a 1.0 mg/ml suspension upon ultrasonic treatment;
Appropriate amounts of drugs were weighed, and dissolved with 5 ml DMSO and 5 ml of Tween 80. Saline solution was added to the final volume. […]
1.0 ml of blood was sampled from the foreleg vein before, and 0.25, 0.5, 1, 2, 4, 6, 8, 12, and 24 hours after oral administration, collected in a heparinized test tube, and centrifuged at 3500 rpm for 10 minutes to separate the plasma, which was stored at −20° C. […] The content of the test compound in the plasma of beagles after administration of the compound by oral gavage and intravenous injection was determined by LC/MS/MS.

ectopic endometrium = experiment: In vivo pharmacodynamics test in rabbit endometriosis model; parameters: species or system New Zealand rabbits
Description: Fifteen (15) healthy New Zealand rabbits (female) were evenly designated into 3 groups.
Rabbits were adaptive fed and quarantined for seven days, and subcutaneously injected with 30 g/kg of estradiol benzoate once daily for two days before surgery. When the model was established, rabbits were anesthetized with 3% sodium pentobarbital, and laparotomized sterilely. Then, one side of the uterus was separated and ligated with the uterine mesorectum vessel. Then, a section of the uterus was cut off and put into a warm saline dish, and then dissected longitudinally and the myometrium and endometrium were separated. A section of endometrium (about 0.5 cm by 0.5 cm) was seamed to the abdominal wall rich in blood vessels with the intimal surface facing toward the abdominal cavity. Three weeks after endometrium planting, the rabbits were laparotomized to check graft intimal size. […] Each group was administered by oral gavage once a day in a volume of 5 ml/kg, continuously for 28 days after successful modeling. Ultimately, the rabbit was weighed and the volume of ectopic endometrium was measured to evaluate the effect of the present compound on the endometrial activity.

[5] = women with endometriosis, 150 or 250 mg qd, vs leuprorelin depot 3.75 mg sc monthly or placebo; cited from earlier work

Sequence of monkey GnRHr (A0A2K5WH82 1-328): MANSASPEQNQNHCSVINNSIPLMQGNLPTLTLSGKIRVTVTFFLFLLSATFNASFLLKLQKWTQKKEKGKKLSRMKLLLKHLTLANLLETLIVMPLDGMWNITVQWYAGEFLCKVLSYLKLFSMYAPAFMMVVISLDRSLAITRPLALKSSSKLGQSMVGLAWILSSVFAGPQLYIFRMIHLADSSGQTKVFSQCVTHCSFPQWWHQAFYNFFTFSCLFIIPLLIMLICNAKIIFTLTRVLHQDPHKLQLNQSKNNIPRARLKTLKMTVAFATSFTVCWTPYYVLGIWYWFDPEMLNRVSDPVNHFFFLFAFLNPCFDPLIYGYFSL

CNC(=O)Nc1ccc(-n2nc3c(c2CN(C)C)c(=O)n(-c2ccc(OC)nn2)c(=O)n3Cc2c(F)cccc2F)cc1 [Example 9, 1-(4-(7-(2,6-difluorobenzyl)-3-((dimethylamino)methyl)-5-(6-methoxypyridazin-3-yl)-4,6-dioxo-4,5,6,7-tetrahydro-2H-pyrazolo[3,4-d]pyrimidin-2-yl)phenyl)-3-methylurea]
IC50 (monkey GnRHr): 23.2 nM

CONC(=O)Nc1ccc(-n2nc3c(c2CN(C)C)c(=O)n(-c2ccc(OC)nn2)c(=O)n3Cc2c(F)cccc2F)cc1 [Example 11, 1-(4-(7-(2,6-difluorobenzyl)-3-((dimethylamino)methyl)-5-(6-methoxypyridazin-3-yl)-4,6-dioxo-4,5,6,7-tetrahydro-2H-pyrazolo[3,4-d]pyrimidin-2-yl)phenyl)-3-methoxyurea]
IC50 (monkey GnRHr): 78.6 nM | bioavailability [1]: 76.6% | Death ([2]; both, SD, rat, in vivo, po, 720 mg/kg, 7 days): died on day 7 before dosing | lethal dose ([2]; both, SD, rat, in vivo, po, 7 days): 720 mg/kg | MRT0-∞ ([2]; female, SD, rat, in vivo, po, 240 mg/kg): 9.63 h | safety window: NOAEL dose ratio (toxicological pharmacokinetic dose/pharmacodynamic dose) ([2]; rat 240 mg/kg / rabbit 30 mg/kg, preliminary evaluation): 240/30 = 8 | urine indexes ([2]; rat, in vivo): no regularly abnormal changes | Blood biochemistry: ALB (albumin) and ALP (alkaline phosphatase) ([2]; rat, in vivo, 720 mg/kg): significantly decreased | Blood biochemistry: ALT (alanine aminotransferase) ([2]; rat, in vivo, 720 mg/kg): no statistical differences | Blood biochemistry: BUN, CHOL, CREA, TBIL, TP and AST ([2]; rat, in vivo, 720 mg/kg): significantly increased | Hematology: WBC, Neut, Lymph, EO and RET ([2]; rat, in vivo, 720 mg/kg): significantly decreased | Relative organ coefficient of the thymus and spleen ([2]; rat, in vivo, 720 mg/kg): significantly reduced | absolute wet weight of the adrenal gland ([2]; rat, in vivo, 720 mg/kg): significantly increased | absolute wet weight of the thymus, heart, lung and spleen ([2]; rat, in vivo, 720 mg/kg): significantly decreased | food intake ([2]; rat, in vivo, 720 mg/kg): significantly reduced | relative organ coefficient of the brain, liver, lung, kidney, and adrenal gland ([2]; rat, in vivo, 720 mg/kg): significantly increased | potential toxic target organs ([2]; rat, in vivo, po): marrow hematopoietic system, thymus, heart, liver, lung, spleen, adrenal gland, ovary, and digestion system | bioavailability ([3]; female, New Zealand, rabbit, plasma, oral 30 mg/kg vs intravenous injection 5 mg/kg, read-out: Oral Bioavailability F): 92.9% | Apparent volume of distribution Vz/F ([3]; oral 30 mg/kg): 10719 ± 3862 mL/kg | Clearance rate CL/F ([4]; oral 5 mg/kg): 14.7 ± 4.2 mL/min/kg | bioavailability ([4]; both sexes, beagle, dog, plasma, oral 5 mg/kg vs i.v. 2 mg/kg, read-out: Oral Bioavailability F): 104% | inhibition for the ectopic endometrial volume (ectopic endometrium; 10 mg/kg oral once daily for 4 weeks): not obvious | growth of ectopic endometrium (ectopic endometrium; 30 mg/kg oral once daily for 4 weeks, vs 0.5% CMC-Na control): significantly inhibited

COc1cccc(-c2c(C)n(Cc3c(F)cccc3C(F)(F)F)c(=O)n(C[C@H](NCCCC(=O)O)c3ccccc3)c2=O)c1F [elagolix, Elagolix]
serum estrogen level [5]: lower than that of the leuprorelin treatment group and placebo group
